From paper PMC8476755 (Frontiers in Chemistry, 2021)

How the values were obtained:
GAT1 = biological target: T1, GAT1 (Homo sapiens, UniProt P30531); experiment: FLIPR membrane potential (FMP) assay, CHO cells stably expressing GAT1; format: cell-based; details: n = 2
T1 construct: expressed in transfected cells
Source text: In order to scrutinize the mode of inhibition of bicyclo-GABA and the N-methylated derivative 2, the ability to be translocated by BGT1 was investigated in the functional FMP assay able to discriminate between substrates and inhibitors, as previously described ([Al-Khawaja et al., 2014]).
The tsA201 cell line (a transformed HEK293 cell line), the Flp-In CHO cell lines stably expressing human (h) GATs and the HEK293 cell line stably expressing human α1β2γ2 GABAA receptors have been described previously and were cultured accordingly ([Al-Khawaja et al., 2014]; [Falk-Petersen et al., 2020]). […]
The FMP assay performed on human α1β2γ2 GABAA receptors in HEK293 cells was performed as described and data analyzed accordingly ([Falk-Petersen et al., 2020]). […] Test compound solutions were prepared at 4x concentration in assay buffer and added to ligand plates pre-heated at 37°C for 10–15 min in the FLEXstation3 plate reader (Molecular Devices). After incubation, 33.3 µL test compound solution (4x) was automatically transferred to each well in the cell plate and the signal was measured for 90 s by measuring emission at 560 nm caused by excitation at 530 nm. […] Data obtained in the FMP assay are given as relative changes in fluorescence units (ΔRFU) by subtracting the average of the baseline fluorescence signal from the peak fluorescence signal after compound addition. […]

BGT1 = system: BGT1; set-up: method as in Kobayashi et al., 2014; details: ref Kobayashi et al., 2014, cited from earlier work

T1 sequence (P30531 whole entry): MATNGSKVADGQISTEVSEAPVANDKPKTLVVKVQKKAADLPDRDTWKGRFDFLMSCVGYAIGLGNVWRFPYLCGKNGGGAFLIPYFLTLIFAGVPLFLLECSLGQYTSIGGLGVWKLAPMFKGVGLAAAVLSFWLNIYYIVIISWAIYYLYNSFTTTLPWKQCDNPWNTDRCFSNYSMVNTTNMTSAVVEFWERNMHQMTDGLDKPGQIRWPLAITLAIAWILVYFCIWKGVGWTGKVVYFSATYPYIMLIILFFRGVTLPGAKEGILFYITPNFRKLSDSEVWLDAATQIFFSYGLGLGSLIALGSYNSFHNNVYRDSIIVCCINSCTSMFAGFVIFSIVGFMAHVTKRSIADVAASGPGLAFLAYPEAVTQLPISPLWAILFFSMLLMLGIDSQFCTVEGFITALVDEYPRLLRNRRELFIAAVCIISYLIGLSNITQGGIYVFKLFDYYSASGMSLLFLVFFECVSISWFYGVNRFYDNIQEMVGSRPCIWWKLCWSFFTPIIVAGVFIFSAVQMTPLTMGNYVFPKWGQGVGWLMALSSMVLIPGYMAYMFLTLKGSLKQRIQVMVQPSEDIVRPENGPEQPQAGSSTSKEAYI

N[C@@]12CC[C@H](C(=O)O)[C@@H]1C2 [bicyclo-GABA, (1S,2S,5R)-5-aminobicyclo[3.1.0]hexane-2-carboxylic acid]
Inhibitory effect at GAT1 (GAT1; in the presence of GABA EC50 concentration (10 µM)): specific to BGT1 | Substrate activity at GAT1 (GAT1; tested as substrate, without GABA): lack of activity | IC50 (BGT1; BGT1 inhibition): 590 nM | Higher activity for BGT1 compared to 1 (BGT1): 9 times | Higher activity for BGT1 than GAT3 (BGT1; subtype-selectivity BGT1 vs GAT3): 129 times
